Calls of active or inactive are those of the source. The rule behind the calls is not given here.
Experiments:
MCF7 = experiment: Antiproliferative activity against human MCF7 cells assessed as cell viability after 48 hrs by SRB assay; format: functional, cell-based; details: MCF7, 48 h
Bos taurus = organism: Bos taurus; experiment: Inhibition of bovine tubulin polymerization at 3 uM after 1 hr by fluorescence assay relative to control
HeLa [1] = experiment: Antiproliferative activity against human HeLa cells assessed as cell viability after 48 hrs by SRB assay; format: functional, cell-based
A549 = experiment: Antiproliferative activity against human A549 cells assessed as cell viability after 48 hrs by SRB assay; format: functional, cell-based; details: A549, 48 h
HeLa [2] = experiment: Induction of apoptosis in human HeLa cells assessed as increase in caspase 3 activity at 40 uM after 24 hrs by fluorimetry relative to control; format: functional
HeLa [3] = experiment: Induction of apoptosis in human HeLa cells assessed as increase in caspase 3 activity at 5 uM after 24 hrs by fluorimetry; format: functional, cell-based
[4] = Inhibition of bovine tubulin assembly after 1 hr by fluorescence assay; set-up: species or system Bos taurus
HeLa [5] = experiment: Induction of apoptosis in human HeLa cells assessed as increase in caspase 3 activity at 5 uM after 24 hrs by fluorimetry relative to control; format: functional
HeLa [6] = experiment: Induction of cell cycle arrest in human HeLa cells assessed as accumulation of cells in S phase at 5 uM after 24 hrs by flow cytometry analysis (reference value: 9.28%); format: functional
HeLa [7] = experiment: Antimitotic activity in human HeLa cells assessed as disruption of microtubule network at 5 uM after 24 hrs by indirect immunofluorescence analysis; format: functional, cell-based
HeLa [8] = experiment: Induction of cell cycle arrest in human HeLa cells assessed as accumulation of cells in G2/M phase at 5 uM after 24 hrs by flow cytometry analysis (reference value: 21.29%); format: functional
HeLa [9] = experiment: Induction of cell cycle arrest in human HeLa cells assessed as accumulation of cells in G1 phase at 5 uM after 24 hrs by flow cytometry analysis (reference value: 69.43%); format: functional
HeLa [10] = experiment: Effect on nuclear condensation in human HeLa cells assessed as incomplete chromosome formation at 5 uM after 24 hrs by indirect immunofluorescence analysis; format: functional, cell-based
HeLa [11] = experiment: Effect on formation of bipolar spindles in human HeLa cells at 5 uM after 24 hrs by indirect immunofluorescence analysis; format: functional, cell-based

SMILES	IC50 (MCF7) [µM]	inhibition (Bos taurus) [%]	IC50 (HeLa [1]; hela)	IC50 (A549) [µM]	IC50 (HeLa [1]; Homo sapiens, HeLa, 48 h) [µM]	fold change (FC) (HeLa [2])	Activity (HeLa [3])	IC50 [4] [µM]	fold change (FC) (HeLa [5])	Activity (HeLa [6]) [%]	Activity (HeLa [7])	Activity (HeLa [8]) [%]	Activity (HeLa [9]) [%]	Activity (HeLa [10])	Activity (HeLa [11])
COc1cc(/C=C/c2c(/C=C/[N+](=O)[O-])cc(OC)c(OC)c2OC)cc(OC)c1OC	13.2	20	Not Active	27.1	–	–	–	–	–	–	–	–	–	–	–
COc1cc(/C=C/[N+](=O)[O-])c(/C=C/c2ccc(-c3ccccc3)cc2)c(OC)c1OC	7.2	28	Not Active	44.4	–	–	–	–	–	–	–	–	–	–	–
COc1cc(/C=C/c2c(/C=C/[N+](=O)[O-])cc(OC)c(OC)c2OC)cc(OC)c1	19.2	27	–	15	10	–	–	–	–	–	–	–	–	–	–
Oc1ccc(/C=C/c2cc(O)cc(O)c2)cc1 [RESVERATROL]	79.1	–	–	44.7	22.5	5	inactive	–	–	–	–	–	–	–	–
COc1cc(/C=C/[N+](=O)[O-])c(/C=C/c2ccc(C)cc2)c(OC)c1OC	42.5	62	–	19	4.4	–	–	4.27	12	23.91	Active	66.43	9.66	Active	inactive
COc1cc(/C=C/[N+](=O)[O-])c(/C=C/c2ccc3ccccc3c2)c(OC)c1OC	16.7	32	–	59.5	189	–	–	–	–	–	–	–	–	–	–
COc1cc(/C=C/[N+](=O)[O-])c(/C=C/c2ccc(F)cc2)c(OC)c1OC	19	31	–	35.9	12.4	–	–	–	–	–	–	–	–	–	–
COc1ccc(/C=C/c2c(/C=C/[N+](=O)[O-])cc(OC)c(OC)c2OC)cc1	21.4	59	–	40.4	7.8	–	–	4.9	10	22.96	Active	60.4	16.64	Active	inactive
COc1cc(/C=C/[N+](=O)[O-])c(/C=C/c2ccc(Br)cc2)c(OC)c1OC	14.6	28	Not Active	41	–	–	–	–	–	–	–	–	–	–	–
COc1cc(/C=C/[N+](=O)[O-])c(/C=C/c2ccccc2)c(OC)c1OC	10.9	31	–	28.9	5.42	–	–	–	–	–	–	–	–	–	–
COc1cc(/C=C/[N+](=O)[O-])c(/C=C/c2ccc(Cl)cc2)c(OC)c1OC	25.7	33	Not Active	22.8	–	–	–	–	–	–	–	–	–	–	–
COc1cc2c(c(OC)c1OC)-c1ccc(OC)c(=O)cc1[C@@H](NC(C)=O)CC2 [COLCHICINE]	–	58	–	–	–	–	–	1.96	–	–	–	–	–	–	–
COc1cc(/C=C/[N+](=O)[O-])c(/C=C/c2ccc3c(c2)OCO3)c(OC)c1OC	19.2	51	–	16.3	5.4	–	–	8.02	–	22.3	–	50.56	27.14	–	–

From ChEMBL document CHEMBL1833868, “Design and synthesis of resveratrol-based nitrovinylstilbenes as antimitotic agents” (J Med Chem, 2011)
